In publication PMC6700801, “Caffeic acid phenethyl ester suppresses androgen receptor signaling and stability via inhibition of phosphorylation on Ser81 and Ser213” (Cell Communication and Signaling : CCS, 2019) one finds IC50 data, which are given here for 1 compound.

What is called IC50 is the point on the concentration scale where inhibition reaches its midpoint.

The assay has as its target T1, Androgen receptor (AR) (Rattus norvegicus, UniProt P15207).
T1 sequence (P15207 646-902 limits assumed): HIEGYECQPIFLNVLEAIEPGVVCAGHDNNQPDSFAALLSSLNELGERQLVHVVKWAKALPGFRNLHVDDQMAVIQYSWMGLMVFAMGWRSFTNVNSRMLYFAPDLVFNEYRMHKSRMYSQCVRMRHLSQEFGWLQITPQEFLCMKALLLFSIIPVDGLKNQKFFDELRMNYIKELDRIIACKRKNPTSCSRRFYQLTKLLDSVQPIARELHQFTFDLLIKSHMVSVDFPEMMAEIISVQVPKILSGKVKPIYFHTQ
In words: fluorescence polarization competition assay (PolarScreen AR Competitor Assay kit); very weak. It is filed as binding.

The compound `O=C(/C=C/c1ccc(O)c(O)c1)OCCc1ccccc1` [Caffeic acid phenethyl ester] gave a half-maximal inhibitory concentration (IC50) of 132 µM.
